Measurements reported in patent US20230085307A1, “PYRIDAZINONE COMPOUND AND HERBICIDE” (NISSAN CHEMICAL CORPORATION, priority 2019, published 2023).

Tests used:
[1] = system: Chinese sprangletop; assay: Test Example 3: herbicidal effect by foliage application, Wagner pot (Table 18, symbol D); format: in vivo, chinese sprangletop (Leptochloa chinensis); settings: 320 g/ha
Procedure, shortened: (§1)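 Plants were sown in alluvial soil held under 0.1–0.5 cm standing water and grown 14 days in a greenhouse at 25–30 °C. An emulsifiable formulation, water-diluted to the set dose, was then sprayed onto the foliage, and effects were scored three weeks later using previously defined criteria.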

[2] = system: lambsquarters; assay: Test Example 5: herbicidal effect by foliage application, plastic box (Table 20, symbol O); format: in vivo, lambsquarters (Chenopodium album); settings: foliage application, 320 g/ha, three weeks after application
Procedure, shortened: (§2)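 Foliar spray test: emulsion formulation diluted in water to a set application rate, sprayed onto 14-day-old plants raised in diluvial soil at 25° C to 30° C under glass. Both herbicidal effect and crop effect rated visually three weeks later.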

[3] = system: redroot pigweed; assay: Test Example 4: herbicidal effect by soil treatment (Table 19, symbol N); format: in vivo, redroot pigweed (Amaranthus retroflexus); settings: amount of applied herbicide 320 g/ha
Procedure, shortened: (§3)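 Step 1: sow seeds in sterilized diluvial soil, cover ~1.5 cm. Step 2: spray diluted emulsion onto soil surface at predetermined rate. Step 3: greenhouse, 25–30° C, three weeks. Step 4: grade effect on each plant by earlier criteria.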

[4] = system: green foxtail; assay: Test Example 5: herbicidal effect by foliage application, plastic box (Table 20, symbol G); format: in vivo, green foxtail (Setaria viridis); settings: foliage application, 320 g/ha, three weeks after application
Procedure, shortened: as §2

[5] = system: southern crabgrass; assay: Test Example 5: herbicidal effect by foliage application, plastic box (Table 20, symbol F); format: in vivo, southern crabgrass (Digitaria ciliaris); settings: foliage application, 320 g/ha, three weeks after application
Procedure, shortened: as §2

[6] = system: redroot pigweed; assay: Test Example 5: herbicidal effect by foliage application, plastic box (Table 20, symbol N); format: in vivo, redroot pigweed (Amaranthus retroflexus); settings: foliage application, 320 g/ha, three weeks after application
Procedure, shortened: as §2

[7] = system: windgrass; assay: Test Example 5: herbicidal effect by foliage application, plastic box (Table 20, symbol L); format: in vivo, windgrass (Apera spica-venti); settings: foliage application, 320 g/ha, three weeks after application
Procedure, shortened: as §2

[8] = system: blackgrass; assay: Test Example 5: herbicidal effect by foliage application, plastic box (Table 20, symbol J); format: in vivo, blackgrass (Alopecurus myosuroides); settings: foliage application, 320 g/ha, three weeks after application
Procedure, shortened: as §2

[9] = system: wild oat; assay: Test Example 5: herbicidal effect by foliage application, plastic box (Table 20, symbol I); format: in vivo, wild oat (Avena fatua); settings: foliage application, 320 g/ha, three weeks after application
Procedure, shortened: as §2

[10] = system: late watergrass; assay: Test Example 2: herbicidal activity, application during weed generation under submerged conditions (Table 17, symbol A); format: in vivo, late watergrass (Echinochloa oryzicola); settings: AAH 320 g/ha; application during weed generation, submerged conditions
Procedure, shortened: (§4)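 Effect on each weed is rated three weeks post-treatment, using the same scoring criteria as the preceding test. Plants grow from mixed-sown seed in flooded alluvial soil (4 cm water) at 25° C. to 30° C., and are treated at one to two leaves with diluted emulsion dropped onto the water.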

[11] = system: chickweed; assay: Test Example 4: herbicidal effect by soil treatment (Table 19, symbol P); format: in vivo, common chickweed (Stellaria media); settings: amount of applied herbicide 320 g/ha
Procedure, shortened: as §3

[12] = system: blackgrass; assay: Test Example 4: herbicidal effect by soil treatment (Table 19, symbol J); format: in vivo, blackgrass (Alopecurus myosuroides); settings: amount of applied herbicide 320 g/ha
Procedure, shortened: as §3

[13] = system: persian speedwell; assay: Test Example 4: herbicidal effect by soil treatment (Table 19, symbol R); format: in vivo, Persian speedwell (Veronica persica); settings: amount of applied herbicide 320 g/ha
Procedure, shortened: as §3

[14] = system: Japanese bulrush; assay: Test Example 2: herbicidal activity, application during weed generation under submerged conditions (Table 17, symbol B); format: in vivo, Japanese bulrush (Schoenoplectus juncoides); settings: AAH 320 g/ha; application during weed generation, submerged conditions
Procedure, shortened: as §4

[15] = system: persian speedwell; assay: Test Example 5: herbicidal effect by foliage application, plastic box (Table 20, symbol R); format: in vivo, Persian speedwell (Veronica persica); settings: foliage application, 320 g/ha, three weeks after application
Procedure, shortened: as §2

[16] = system: barnyard grass; assay: Test Example 4: herbicidal effect by soil treatment (Table 19, symbol H); format: in vivo, barnyard grass (Echinochloa crus-galli); settings: amount of applied herbicide 320 g/ha
Procedure, shortened: as §3

[17] = system: green foxtail; assay: Test Example 4: herbicidal effect by soil treatment (Table 19, symbol G); format: in vivo, green foxtail (Setaria viridis); settings: amount of applied herbicide 320 g/ha
Procedure, shortened: as §3

[18] = system: chickweed; assay: Test Example 5: herbicidal effect by foliage application, plastic box (Table 20, symbol P); format: in vivo, common chickweed (Stellaria media); settings: foliage application, 320 g/ha, three weeks after application
Procedure, shortened: as §2

[19] = system: velvetleaf; assay: Test Example 4: herbicidal effect by soil treatment (Table 19, symbol M); format: in vivo, velvetleaf (Abutilon theophrasti); settings: amount of applied herbicide 320 g/ha
Procedure, shortened: as §3

[20] = system: Italian ryegrass; assay: Test Example 5: herbicidal effect by foliage application, plastic box (Table 20, symbol K); format: in vivo, Italian ryegrass (Lolium multiflorum); settings: foliage application, 320 g/ha, three weeks after application
Procedure, shortened: as §2

[21] = system: barnyard grass; assay: Test Example 5: herbicidal effect by foliage application, plastic box (Table 20, symbol H); format: in vivo, barnyard grass (Echinochloa crus-galli); settings: foliage application, 320 g/ha, three weeks after application
Procedure, shortened: as §2

[22] = system: Italian ryegrass; assay: Test Example 4: herbicidal effect by soil treatment (Table 19, symbol K); format: in vivo, Italian ryegrass (Lolium multiflorum); settings: amount of applied herbicide 320 g/ha
Procedure, shortened: as §3

[23] = system: false cleavers; assay: Test Example 5: herbicidal effect by foliage application, plastic box (Table 20, symbol Q); format: in vivo, false cleavers (Galium spurium); settings: foliage application, 320 g/ha, three weeks after application
Procedure, shortened: as §2

[24] = system: southern crabgrass; assay: Test Example 4: herbicidal effect by soil treatment (Table 19, symbol F); format: in vivo, southern crabgrass (Digitaria ciliaris); settings: amount of applied herbicide 320 g/ha
Procedure, shortened: as §3

[25] = system: rice flat sedge; assay: Test Example 3: herbicidal effect by foliage application, Wagner pot (Table 18, symbol E); format: in vivo, rice flat sedge (Cyperus iria); settings: 320 g/ha
Procedure, shortened: as §1

[26] = system: false cleavers; assay: Test Example 4: herbicidal effect by soil treatment (Table 19, symbol Q); format: in vivo, false cleavers (Galium spurium); settings: amount of applied herbicide 320 g/ha
Procedure, shortened: as §3

[27] = system: wild oat; assay: Test Example 4: herbicidal effect by soil treatment (Table 19, symbol I); format: in vivo, wild oat (Avena fatua); settings: amount of applied herbicide 320 g/ha
Procedure, shortened: as §3

[28] = system: velvetleaf; assay: Test Example 5: herbicidal effect by foliage application, plastic box (Table 20, symbol M); format: in vivo, velvetleaf (Abutilon theophrasti); settings: foliage application, 320 g/ha, three weeks after application
Procedure, shortened: as §2

[29] = system: barnyard grass; assay: Test Example 3: herbicidal effect by foliage application, Wagner pot (Table 18, symbol H); format: in vivo, barnyard grass (Echinochloa crus-galli); settings: 320 g/ha
Procedure, shortened: as §1

[30] = system: oval-leafed pondweed; assay: Test Example 2: herbicidal activity, application during weed generation under submerged conditions (Table 17, symbol C); format: in vivo, oval-leafed pondweed (Monochoria vaginalis); settings: AAH 320 g/ha; application during weed generation, submerged conditions
Procedure, shortened: as §4

With `COc1ccc(-c2sc3ccccc3c2-c2c(O)c(C)nn(C)c2=O)cc1C` [1-068] the “herbicidal effect on D (Chinese sprangletop), rating 0-5” value [1] was 1 (Herbicidal rate of 5% or more and less than 20%), the “herbicidal effect grade, O: lambsquarters” value [2] was 3 (Herbicidal rate of 40% or more and less than 70%) and the “herbicidal effect rating, N: redroot pigweed” value [3] was 0 (Herbicidal rate of 5% or less (almost no effect)). For the same molecule, the “herbicidal effect grade, G: green foxtail” value [4] was 3 (Herbicidal rate of 40% or more and less than 70%), the “herbicidal effect grade, F: southern crabgrass” value [5] was 3 (Herbicidal rate of 40% or more and less than 70%) and the “herbicidal effect grade, N: redroot pigweed” value [6] was 0 (Herbicidal rate of 5% or less (almost no effect)). The “herbicidal effect grade, L: windgrass” value [7] was 0 (Herbicidal rate of 5% or less (almost no effect)), the “herbicidal effect grade, J: blackgrass” value [8] was 0 (Herbicidal rate of 5% or less (almost no effect)) and the “herbicidal effect grade, I: wild oat” value [9] was 1 (Herbicidal rate of 5% or more and less than 20%). For the same molecule, the “herbicidal effect rating, A: late watergrass” value [10] was 0 (Herbicidal rate of 5% or less (almost no effect)), the “herbicidal effect rating, P: chickweed” value [11] was 2 (Herbicidal rate of 20% or more and less than 40%) and the “herbicidal effect rating, J: blackgrass” value [12] was 0 (Herbicidal rate of 5% or less (almost no effect)). For the same molecule, the “herbicidal effect rating, R: persian speedwell” value [13] was 4 (Herbicidal rate of 70% or more and less than 90%), the “herbicidal effect rating, B: Japanese bulrush” value [14] was 1 (Herbicidal rate of 5% or more and less than 20%) and the “herbicidal effect grade, R: persian speedwell” value [15] was 5 (Herbicidal rate of 90% or more (almost completely withered)). For the same molecule, the “herbicidal effect rating, H: barnyard grass” value [16] was 4 (Herbicidal rate of 70% or more and less than 90%), the “herbicidal effect rating, G: green foxtail” value [17] was 4 (Herbicidal rate of 70% or more and less than 90%) and the “herbicidal effect grade, P: chickweed” value [18] was 5 (Herbicidal rate of 90% or more (almost completely withered)). For the same molecule, the “herbicidal effect rating, M: velvetleaf” value [19] was 0 (Herbicidal rate of 5% or less (almost no effect)), the “herbicidal effect grade, K: Italian ryegrass” value [20] was 3 (Herbicidal rate of 40% or more and less than 70%) and the “herbicidal effect grade, H: barnyard grass” value [21] was 3 (Herbicidal rate of 40% or more and less than 70%). For the same molecule, the “herbicidal effect rating, K: Italian ryegrass” value [22] was 2 (Herbicidal rate of 20% or more and less than 40%), the “herbicidal effect grade, Q: false cleavers” value [23] was 0 (Herbicidal rate of 5% or less (almost no effect)) and the “herbicidal effect rating, F: southern crabgrass” value [24] was 0 (Herbicidal rate of 5% or less (almost no effect)). For the same molecule, the “herbicidal effect on E (rice flat sedge), rating 0-5” value [25] was 5 (Herbicidal rate of 90% or more (almost completely withered)), the “herbicidal effect rating, Q: false cleavers” value [26] was 0 (Herbicidal rate of 5% or less (almost no effect)) and the “herbicidal effect rating, I: wild oat” value [27] was 0 (Herbicidal rate of 5% or less (almost no effect)). The “herbicidal effect grade, M: velvetleaf” value [28] was 3 (Herbicidal rate of 40% or more and less than 70%), the “herbicidal effect on H (barnyard grass), rating 0-5” value [29] was 3 (Herbicidal rate of 40% or more and less than 70%) and the “herbicidal effect rating, C: oval-leafed pondweed” value [30] was 3 (Herbicidal rate of 40% or more and less than 70%).
